In series [1] the target is Peptidyl-prolyl cis-trans isomerase FKBP1A (Homo sapiens, UniProt P62942). Briefly: Binding affinity for FK506 binding protein 12 using [3H]-dihydro FK-506 radioligand was determined.
Series [2] relates to Mus musculus. Nature of the series: Neurotoxic activity was determined by measuring compound-induced hypothermia in BALB/c mice, after administering intravenously in mouse. The class given is functional. As to conditions: iv.
In series [3] the test system is Mus musculus. Nature of the series: Immunosuppressive activity was determined by ex vivo murine-based model of immunosuppression, compound was administered intravenously in mouse. Format: functional. The note with it: iv.
The test system of series [4] is Mus musculus. Briefly: Immunosuppressive activity was determined by ex vivo murine-based model of immunosuppression, compound was administered perorally in mouse. Format: functional. The note with it: po.
The test system of series [5] is Rattus norvegicus. Nature of the series: Nephrotoxic potential was tested in spontaneously hypertensive rats by administering 0 mg/kg/day intraperitoneally for 5 days. As to conditions: route intraperitoneal. The class given is functional.
The test system of series [6] is Rattus norvegicus. Briefly: Nephrotoxic potential was tested in spontaneously hypertensive rats by administering 10 mg/kg/day intraperitoneally for 5 days. Format: functional. As to conditions: route intraperitoneal.
The test system of series [7] is Rattus norvegicus. Nature of the series: Nephrotoxic potential was tested in spontaneously hypertensive rats by administering 20 mg/kg/day intraperitoneally for 5 days. Format: functional. As to conditions: route intraperitoneal.
The subject of series [8] is Rattus norvegicus. Nature of the series: Nephrotoxic potential was tested in spontaneously hypertensive rats by administering 40 mg/kg/day intraperitoneally for 5 days. The class given is functional. The note with it: route intraperitoneal.
Series [9] can be described thus: Therapeutic index was determined as mouse hypothermia ED50/murine ex vivo ED50. As to conditions: read-out: Therapeutic index.

Peptidyl-prolyl cis-trans isomerase FKBP1A, sequence (P62942 whole entry): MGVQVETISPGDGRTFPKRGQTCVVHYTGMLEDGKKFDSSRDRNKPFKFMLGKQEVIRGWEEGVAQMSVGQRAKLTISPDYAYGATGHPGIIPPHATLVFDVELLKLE

In series [1], `CC[C@@H]1/C=C(\C)C[C@H](C)C[C@H](OC)[C@H]2O[C@@](O)(C(=O)C(=O)N3CCCC[C@H]3C(=O)O[C@H](/C(C)=C/[C@@H]3CC[C@@H](OC/C=C/c4ccccc4)[C@H](OC)C3)[C@H](C)[C@@H](O)CC1=O)[C@H](C)C[C@@H]2OC` had an EC50 of 30 nM.
The same measure, in the same setting: the result for `CC[C@@H]1/C=C(\C)C[C@H](C)C[C@H](OC)[C@H]2O[C@@](O)(C(=O)C(=O)N3CCCC[C@H]3C(=O)O[C@H](/C(C)=C/[C@@H]3CC[C@@H](OCOCc4ccccc4)[C@H](OC)C3)[C@H](C)[C@@H](O)CC1=O)[C@H](C)C[C@@H]2OC` reads 12 nM; that for `CC[C@@H]1/C=C(\C)C[C@H](C)C[C@H](OC)[C@H]2O[C@@](O)(C(=O)C(=O)N3CCCC[C@H]3C(=O)O[C@H](/C(C)=C/[C@@H]3CC[C@@H](OCc4nccn4Cc4ccccc4)[C@H](OC)C3)[C@H](C)[C@@H](O)CC1=O)[C@H](C)C[C@@H]2OC`, 7.4 nM; that for `CC[C@@H]1/C=C(\C)C[C@H](C)C[C@H](OC)[C@H]2O[C@@](O)(C(=O)C(=O)N3CCCC[C@H]3C(=O)O[C@H](/C(C)=C/[C@@H]3CC[C@@H](OCc4nc(-c5ccccc5)c[nH]4)[C@H](OC)C3)[C@H](C)[C@@H](O)CC1=O)[C@H](C)C[C@@H]2OC`, 22 nM.
Regarding `C=CC[C@@H]1/C=C(\C)C[C@H](C)C[C@H](OC)[C@H]2O[C@@](O)(C(=O)C(=O)N3CCCC[C@H]3C(=O)O[C@H](/C(C)=C/[C@@H]3CC[C@@H](O)[C@H](OC)C3)[C@H](C)[C@@H](O)CC1=O)[C@H](C)C[C@@H]2OC` [TACROLIMUS ANHYDROUS], the ED50 with Mus musculus [2] worked out at 3.5 mg/kg; with Mus musculus [3], 0.24 mg/kg; in the series on Mus musculus [4], 2.6 mg/kg. The BUN was 20 mg/dL in the series on Rattus norvegicus [5], 22 mg/dL in the series on Rattus norvegicus [6], 43 mg/dL with Rattus norvegicus [7] and 76 mg/dL in the series with Rattus norvegicus [8]. In addition, the selectivity ratio in [9] was determined as 15.

A word on the EC50: it is the concentration giving half of the maximal effect. The ED50 is the dose that gives a 50% effect, or the effect in half of the subjects.
